Measured values from PubChem BioAssay (NCI).
Values joined by “and” are separate entries in the source; they are usually repeats but may differ in a detail not shown here. Identical values can stand only once.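 Growth conditions: 96-well plates. Treatment: test compound, 48 hours, 5 concentrations. Analysis: linear interpolation between bracketing concentrations; unreached endpoints set to highest concentration. GI50 is the concentration that inhibits growth by half. At the TGI there is no net growth.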

How the values were obtained:
Assay in all cases: growth of human tumour cells (NCI), 48 h
COLO 205 colon = system: COLO 205 colon
EKVX NSCLC = system: EKVX NSCLC
HCT-15 colon = system: HCT-15 colon
MDA-N = system: MDA-N
MOLT-4 leukemia = system: MOLT-4 leukemia
NCI-H226 lung = system: NCI-H226 lung
OVCAR-8 ovarian = system: OVCAR-8 ovarian
SNB-75 CNS = system: SNB-75 CNS
TK-10 renal = system: TK-10 renal
UACC-62 melanoma = system: UACC-62 melanoma

Row | Compound | TGI (COLO 205 colon) | TGI (EKVX NSCLC) | TGI (HCT-15 colon) | TGI (MDA-N) | TGI (MOLT-4 leukemia) | TGI (NCI-H226 lung) | TGI (OVCAR-8 ovarian) | TGI (SNB-75 CNS) | TGI (TK-10 renal) | TGI (UACC-62 melanoma) | GI50 (COLO 205 colon) | GI50 (HCT-15 colon) | GI50 (NCI-H226 lung) | GI50 (SNB-75 CNS) | GI50 (UACC-62 melanoma)
1 | O=C1c2ccccc2C(=O)N1C(=S)c1ccccc1 | > 100 µM | > 100 µM | > 100 µM | > 100 µM | > 100 µM | > 100 µM | > 100 µM | > 100 µM | > 100 µM | > 100 µM |  |  |  |  | 
2 | C=CCC1NCCC2=C1C(S(=O)(=O)c1ccc(C)cc1)c1ccccc12 (stereo not given) | 4.29 µM | 33.5 µM | 27.8 µM | 20.2 µM | > 100 µM | 35.9 µM | 30.5 µM | 18.9 µM | 32.7 µM | 24.6 µM |  |  |  |  | 
3 | O=[N+]([O-])c1cccc2nc3ccccc3c(NCCC[N+]3([O-])CCCCC3)c12 | 0.317 µM | 2.94 µM | > 100 µM | 0.56 µM | > 100 µM | 1.54 µM | 13.6 µM | 1.4 µM | 10.9 µM | 0.805 µM |  |  |  |  | 
4 | O=C([C@H](O)[C@@H](O)c1ccc(Br)cc1)C12CC3CC(CC(C3)C1)C2 | > 40.2 µM | > 76.9 µM | > 75 µM | > 100 µM | > 100 µM | > 85.7 µM | > 100 µM | 8.2 µM | > 47.8 µM | 25.8 µM |  |  |  |  | 
5 | O=C(Nc1ccc2ccccc2c1)Nn1cnnc1 | > 100 µM | > 100 µM | > 100 µM | > 100 µM | > 100 µM | > 100 µM | > 100 µM | > 100 µM | > 100 µM | > 100 µM |  |  |  |  | 
6 | Cc1cccc2c(N)c3cccc(C(=O)NCC[N+](C)(C)Cc4sc(N5CCOCC5)nc4[N+](=O)[O-])c3nc12 | > 100 µM | > 100 µM | 13.3 µM | 21.8 µM | > 100 µM | 17.4 µM | 17.4 µM | 22.7 µM | 37.6 µM | 18.6 µM |  |  |  |  | 
7 | COc1ccc(N2CCN(c3ccc4c(c3)NCC(=O)N4)CC2)cc1 | > 100 µM | > 100 µM | > 100 µM | > 100 µM | > 100 µM | > 100 µM | > 100 µM | 93.8 µM | > 100 µM | 56.5 µM |  |  |  |  | 
8 | O=C(NN=C1CCCCC1)Nc1ccccc1Cl | > 100 µM | > 100 µM | > 100 µM | 39 µM | > 100 µM | > 100 µM | > 100 µM | 29.6 µM | > 100 µM | > 100 µM |  |  |  |  | 
9 | COc1ccc(N2C(=O)C3c4[nH]c5ccccc5c4C4CCC(C(C)C)CC4C3C2=O)cc1 (stereo not given) | > 100 µM | > 100 µM | > 100 µM | > 100 µM | > 100 µM | > 100 µM | > 100 µM | > 100 µM | > 100 µM | > 100 µM |  |  |  |  | 
10 | N#CC1N(C(=O)c2ccc(F)cc2)c2ccccc2N1C(=O)c1ccc(F)cc1 | 45.6 µM | > 100 µM | > 100 µM | > 100 µM | 82.8 µM | > 100 µM | > 100 µM | > 100 µM | > 100 µM | > 100 µM |  |  |  |  | 
11 | CC(C)OC(=O)c1ccc(CCC2=CC(=O)C(Br)=CC2=O)cc1 | 24.7 µM | 31.1 µM | 29.6 µM | 30.9 µM | 14 µM | 71.9 µM | 32.8 µM | 32.5 µM | 45.3 µM | 31.3 µM |  |  |  |  | 
12 | COC(=O)C1(NC(=O)C(N)CC(=O)O)C(C)C1C (stereo not given) | > 100 µM | > 100 µM | > 100 µM | > 100 µM | > 100 µM | > 100 µM | > 100 µM | > 100 µM | > 100 µM | > 100 µM |  |  |  |  | 
13 | FC1CCN(C2(c3cccs3)CCCCC2)CC1 | > 100 µM | > 100 µM | > 100 µM | > 100 µM | > 100 µM | > 100 µM | > 100 µM | > 100 µM | > 100 µM | > 100 µM |  |  |  |  | 
14 | CC[C@@]1(O)C(=O)OCc2c1cc1n(c2=O)Cc2c-1nc1ccccc1c2/C=N\NC(=O)C(N)CS (stereo not given in full) | > 100 µM | > 100 µM | > 100 µM | > 100 µM | 2.07 µM | 34.1 µM | > 100 µM | 14 µM | > 100 µM | 0.761 µM |  |  |  |  | 
15 | Oc1[nH]c2ccccc2c1N=NC(=S)N1CCCCCC1 | 6.2 µM | 6.8 µM | 10 µM | 22.7 µM | 3.1 µM | 4.45 µM | 2.67 µM | 4.34 µM | 7.86 µM | 2.5 µM |  |  |  |  | 
16 | CC(=O)Oc1ccc(OC(Oc2ccccc2)c2ccccc2)cc1 (stereo not given) | > 100 µM | > 100 µM | > 100 µM | 42.2 µM | > 100 µM | 69.7 µM | > 100 µM | 64.4 µM | > 100 µM | 44.6 µM |  |  |  |  | 
17 | Clc1ccc(OCC2NC3C=CC32)cn1 (stereo not given) | > 100 µM | 93.7 µM | > 100 µM | > 100 µM | > 100 µM | > 100 µM | > 100 µM | > 100 µM | > 100 µM | > 100 µM |  |  |  |  | 
18 | Cc1cc(S(=O)(=O)O)ccc1N=Nc1ccc(N=Nc2c(O)ccc3ccccc23)c(C)c1 | > 100 µM | > 100 µM | > 100 µM | > 100 µM | > 100 µM | > 100 µM | > 100 µM | > 100 µM | > 100 µM | > 100 µM |  |  |  |  | 
19 | C1OCN2c3nonc3N3COCN4c5nonc5N1C2C43 (stereo not given) | > 100 µM | > 100 µM | > 100 µM | > 100 µM | > 100 µM | > 100 µM | > 100 µM | > 100 µM | > 100 µM | > 100 µM |  |  |  |  | 
20 | O=c1c2c([nH]c3cc4c(cc13)OCO4)-c1ccccc1CCC2 | > 50 µM | > 50 µM | > 50 µM | > 50 µM | > 50 µM | > 50 µM | > 50 µM | > 50 µM | > 50 µM | > 50 µM |  |  |  |  | 
21 | COc1cc2c3c(cc(Cl)nc3c1OC)C(O)(CC(C)=O)C(=O)N2 (stereo not given) | > 100 µM | 30.9 µM | > 62.5 µM | 31.1 µM | > 34.5 µM | > 57.3 µM | 36.2 µM | > 55.9 µM | 37.3 µM | 31.5 µM |  |  |  |  | 
22 | CC(=O)O[C@H]1CC[C@@]2(C)C(=CC[C@@H]3[C@@H]2CC[C@]2(C)c4nc(N)c(C#N)cc4C[C@@H]32)C1 | > 100 µM | > 86.9 µM | > 42.6 µM | > 100 µM | > 100 µM | > 100 µM | > 100 µM | 23.6 µM | > 100 µM | > 100 µM |  |  |  |  | 
23 | O=C(CCc1cc(O)cc(O)c1)NCCc1ccc(O)c(O)c1 | > 100 µM | > 100 µM | > 100 µM | > 100 µM | > 100 µM | > 100 µM | > 100 µM | > 100 µM | > 100 µM | > 100 µM |  |  |  |  | 
24 | Cc1ccc(S(=O)(=O)n2cc(-c3cnc(N)c(Br)n3)c3ccccc32)cc1 | 10 µM | > 100 µM | > 100 µM | 0.836 µM | 10.7 µM | > 100 µM | > 100 µM | > 22.5 µM | > 100 µM | > 57.2 µM |  |  |  |  | 
25 | C/C=C/C=C/C1=NN(c2cccc(S(=O)(=O)O)c2)C2(C1)SCC(=O)N2c1nc2ccccc2s1 (stereo not given) | > 100 µM | > 100 µM | > 100 µM | > 100 µM | > 100 µM | > 100 µM | > 100 µM | > 100 µM | > 100 µM | > 100 µM |  |  |  |  | 
26 | C=C1c2nc3ccccc3n2C=C(c2ccc(Cl)cc2)N1c1ccccc1 | > 100 µM | 45.2 µM | 24.5 µM | > 100 µM | > 100 µM | 3.72 µM | 23.7 µM | 15.9 µM | 24.8 µM | 66.2 µM |  |  |  |  | 
27 | COc1ccc2[nH]c(C(=O)N3CC(CCl)c4ccc([N+](=O)[O-])cc43)cc2c1 (stereo not given) | > 100 µM | > 100 µM | > 100 µM | > 100 µM | > 100 µM | > 100 µM | > 100 µM | > 88.7 µM | > 100 µM | > 100 µM |  |  |  |  | 
28 | N#CSCC1COc2ccccc2O1 (stereo not given) | > 10 µM | > 10 µM | > 10 µM | > 10 µM | > 10 µM | > 10 µM | > 10 µM | > 10 µM | > 10 µM | > 10 µM |  |  |  |  | 
29 | Cc1cc(=O)c2c(O)c3c(O)cc(O)c4c5c(O)cc(O)c6c(O)c7c(=O)cc(C)c8c1c2c(c34)c(c65)c78 | > 100 µM | > 100 µM | > 100 µM and 52 µM | > 100 µM | > 100 µM and 24.2 µM | > 100 µM and 44.3 µM | > 100 µM | > 100 µM | > 100 µM | > 100 µM | > 100 µM | > 100 µM and 20.1 µM | > 100 µM and 16.3 µM | > 100 µM and 32.3 µM | > 100 µM
